# From patent publication US4325960A, “6-Amidinopenicillanic acid derivatives including the radical of a β-lactamase inhibitor” (Leo Pharmaceutical Products Ltd. A/S (Lovens Kemiske Fabrik, priority 1979, dated 1982)
# “And” between values parts separate entries of the source, which are not always exact repeats. Equal entries are not always repeated. Structures can show the parent of a compound that is named as a salt.
# How the values were obtained:
# β-lactamases = details: cited from earlier work
# [1] = Urinary excretion in 0 to 6 hours of penicillanic acid 1,1-dioxide in fasting volunteers following oral administration; format: in vivo, human
# Method: Urinary excretion in 0 to 6 hours of penicillanic
# acid 1,1-dioxide in fasting volunteers following
# A. 60 mg of potassium penicillanate 1,1-dioxide
# (corresponding to 52 mg of penicillanic acid
# 1,1-dioxide) in aqueous solution
# B. 128 mg of VD-1825 hydrochloride (corresponding
# to 49.0 mg of penicillanic acid 1,1-dioxide) in […]
# [2] = in vivo; cited from earlier work
# [3] = human, in vivo, po
# Method: Serum concentrations and urinary excretion of mecillinam in fasting
# following oral administration of
# B. 128 mg of VD-1825^x hydrochloride (corresponding to 100 mg of
# pivmecillinam hydrochloride) in aqueous solution
compound,measurement,setting,value
"CC1(C)[C@H](C(=O)O)N2C(=O)[C@H](Cl)[C@H]2S1(=O)=O [6α-chloropenicillanic acid 1,1-dioxide]",β-lactamase inhibition,β-lactamases,powerful inhibitors of a wide range of β-lactamases
"CC1(C)[C@H](C(=O)[O-])N2C(=O)C[C@H]2S1(=O)=O.[K+] [potassium penicillanate 1,1-dioxide]","Urinary excretion of penicillanic acid 1,1-dioxide","[1]; 0 to 6 hours, individual subject, 60 mg potassium penicillanate 1,1-dioxide oral, aqueous solution, fasting, 360 min",2.4 % of dose and 3.2 % of dose and 7.7 % of dose and 5.2 % of dose and 2.9 % of dose
same,"Urinary excretion of penicillanic acid 1,1-dioxide, mean","[1]; 0 to 6 hours, mean, 60 mg potassium penicillanate 1,1-dioxide oral, aqueous solution, fasting",4.3 % of dose
same,dose excreted at 6 h,"[1]; human, in vivo, po, 60 mg, 0 to 6 hours, mean, 60 mg potassium penicillanate 1,1-dioxide oral, aqueous solution, fasting",4.3%
CC1(C)[C@H](C(=O)O)N2C(=O)[C@@H](NC(=O)c3nc4ccccc4nc3C(=O)O)[C@H]2S1(=O)=O [quinacillin sulphone],β-lactamase inhibition,β-lactamases,powerful inhibitors of a wide range of β-lactamases
O=C(O)[C@H]1/C(=C/CO)O[C@@H]2CC(=O)N21 [clavulanic acid],β-lactamase inhibition,β-lactamases,β-lactamase inhibitors
"COc1cccc(OC)c1C(=O)N[C@@H]1C(=O)N2[C@@H](C(=O)O)C(C)(C)S(=O)(=O)[C@H]12 [methicillin sulphone, 1,1-dioxo-6β-(2,6-dimethoxybenzamido)penicillanic acid]",β-lactamase inhibition,β-lactamases,powerful inhibitors of a wide range of β-lactamases
"CC1(C)[C@H](C(=O)O)N2C(=O)C[C@H]2S1(=O)=O [penicillanic acid 1,1-dioxide]","Absorption from the gastro-intestinal tract, cf. Table II",[1]; oral,absorbed poorly or irregularly from the gastro-intestinal tract
same,β-lactamase inhibition,β-lactamases,powerful inhibitors of a wide range of β-lactamases
"CC1(C)S[C@@H]2[C@H](N=CN3CCCCCC3)C(=O)N2[C@H]1C(=O)O [mecillinam, 6-[(hexahydro-1H-azepin-1-yl)-methyleneamino]penicillanic acid]",Absorption from the gastro-intestinal tract on oral administration,[2],"incompletely absorbed, when given orally"
"CC1(C)S[C@@H]2[C@H](N=CN3CCCCCC3)C(=O)N2[C@H]1C(=O)OCOC(=O)[C@@H]1N2C(=O)C[C@H]2S(=O)(=O)C1(C)C [VD-1825, 1,1-Dioxopenicillanoyloxymethyl 6-[(hexahydro-1H-azepin-1-yl)-methyleneamino]penicillanate hydrochloride]",Urinary recovery of mecillinam compared with pivmecillinam,[3],comparable to that following administration of pivmecillinam
same,"Absorption concluded from urinary recovery of penicillanic acid 1,1-dioxide","[1]; human, in vivo, po",efficient absorption
CC(C)(C)C(=O)OCOC(=O)[C@@H]1N2C(=O)C[C@H]2S(=O)(=O)C1(C)C,Absorption from the gastro-intestinal tract on oral administration,[2],absorbed much more slowly
